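Method: 48-hour compound exposure of cells in 96-well plates, five concentrations, linear interpolation of endpoints. TGI: concentration producing complete growth inhibition.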
Columns and labels:
Assay in all cases: NCI-60 cell line screen, 48 h
[1] = tested on: PC-3 prostate
[2] = tested on: SK-OV-3 ovarian
[3] = tested on: SN12C renal
[4] = tested on: M14 melanoma
[5] = tested on: HS 578T breast
[6] = tested on: RXF 393 renal
[7] = tested on: DU-145 prostate
[8] = tested on: KM12 colon
[9] = tested on: OVCAR-3 ovarian
[10] = tested on: LOX IMVI melanoma
[11] = tested on: UACC-62 melanoma
[12] = tested on: NCI-H460 lung
[13] = tested on: SW-620 colon
[14] = tested on: SK-MEL-5 melanoma
[15] = tested on: MOLT-4 leukemia
[16] = tested on: OVCAR-4 ovarian
[17] = tested on: NCI/ADR-RES ovarian
[18] = tested on: TK-10 renal
[19] = tested on: OVCAR-8 ovarian
[20] = tested on: IGROV1 ovarian
[21] = tested on: K-562 leukemia
[22] = tested on: MDA-MB-231 breast
[23] = tested on: HCT-15 colon
[24] = tested on: BT-549 breast
[25] = tested on: COLO 205 colon
[26] = tested on: U251 CNS
[27] = tested on: NCI-H23 lung
[28] = tested on: MALME-3M melanoma
[29] = tested on: OVCAR-5 ovarian
[30] = tested on: CCRF-CEM leukemia
[31] = tested on: SK-MEL-28 melanoma
[32] = tested on: HOP-62 NSCLC
[33] = tested on: SNB-75 CNS
[34] = tested on: CAKI-1 renal
[35] = tested on: MDA-N
[36] = tested on: HCT-116 colon
[37] = tested on: MDA-MB-435
[38] = tested on: HT29 colon
[39] = tested on: SF-295 CNS
[40] = tested on: MCF7 breast
[41] = tested on: SNB-19 CNS
[42] = tested on: T-47D breast
[43] = tested on: UO-31 renal
[44] = tested on: UACC-257 melanoma
[45] = tested on: SF-268 CNS
[46] = tested on: RPMI-8226 leukemia
[47] = tested on: A549 NSCLC
[48] = tested on: EKVX NSCLC
[49] = tested on: HL-60(TB) leukemia
[50] = tested on: SK-MEL-2 melanoma
[51] = tested on: NCI-H522 lung
[52] = tested on: A498 renal
[53] = tested on: SR leukemia
[54] = tested on: 786-0 renal
[55] = tested on: ACHN renal
[56] = tested on: HOP-92 NSCLC
[57] = tested on: SF-539 CNS
[58] = tested on: NCI-H226 lung

Measured: TGI

O=C(NN=C1CCCCC1)NN=C1CCCCC1
not listed: [45] | [46] | [47] | [48] | [49] | [50] | [51] | [52] | [53] | [54] | [55] | [56] | [57] | [58]
> 100 µM: all other assays above

NC(N)=NCC(N)C(=O)O (stereo not given)
not listed: [15] | [30]
> 100 µM: all other assays above

Reference: PubChem BioAssay (NCI)
